This is an account of results in ChEMBL document CHEMBL5532678, “Comprehensive Insights that Targeting PIM for Cancer Therapy: Prospects and Obstacles” (J Med Chem, 2024).

The target of this assay is T1, Receptor-type tyrosine-protein kinase FLT3 (Homo sapiens, UniProt P36888).
T1 sequence (P36888 whole entry): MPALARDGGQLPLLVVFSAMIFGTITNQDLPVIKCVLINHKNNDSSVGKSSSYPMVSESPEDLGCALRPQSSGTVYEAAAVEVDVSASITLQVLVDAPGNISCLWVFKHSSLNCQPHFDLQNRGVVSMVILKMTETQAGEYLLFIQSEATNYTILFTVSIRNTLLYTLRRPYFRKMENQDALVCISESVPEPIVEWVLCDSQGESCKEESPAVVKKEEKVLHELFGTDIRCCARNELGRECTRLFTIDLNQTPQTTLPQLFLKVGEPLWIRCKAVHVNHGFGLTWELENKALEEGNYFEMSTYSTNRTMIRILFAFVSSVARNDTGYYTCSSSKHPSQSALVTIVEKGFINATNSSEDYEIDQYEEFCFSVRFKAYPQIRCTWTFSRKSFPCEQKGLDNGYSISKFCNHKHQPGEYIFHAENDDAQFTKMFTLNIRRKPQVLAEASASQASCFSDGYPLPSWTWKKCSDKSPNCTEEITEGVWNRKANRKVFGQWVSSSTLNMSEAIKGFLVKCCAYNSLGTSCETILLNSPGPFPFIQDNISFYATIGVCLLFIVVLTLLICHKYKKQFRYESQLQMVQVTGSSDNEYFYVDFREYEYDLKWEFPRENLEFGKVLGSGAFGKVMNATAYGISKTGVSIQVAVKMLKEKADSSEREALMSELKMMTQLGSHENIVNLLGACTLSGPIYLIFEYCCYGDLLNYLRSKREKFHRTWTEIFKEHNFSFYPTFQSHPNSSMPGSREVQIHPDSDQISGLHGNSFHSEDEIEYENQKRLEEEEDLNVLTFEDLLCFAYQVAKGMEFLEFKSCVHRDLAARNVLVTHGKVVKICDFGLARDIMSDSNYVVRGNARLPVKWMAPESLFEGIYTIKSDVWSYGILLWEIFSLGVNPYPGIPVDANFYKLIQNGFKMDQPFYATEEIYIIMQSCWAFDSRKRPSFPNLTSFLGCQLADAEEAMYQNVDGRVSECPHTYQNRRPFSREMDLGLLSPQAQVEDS
Description: Inhibition of FLT3 (unknown origin).

The molecule `N[C@H]1CC[C@@H](Nc2cncc(-c3cccc(CC4SC(=O)NC4=O)c3)n2)CC1` (stereo partly specified) returned an IC50 of 0.11 nM.

A word on the IC50: it is the point on the concentration scale where inhibition reaches its midpoint. Low values mean greater potency in that assay, high ones weaker potency in that assay.
